Measurements as given in patent US20150313928A1, “NEW APPLICATION OF CATALPOL” (SUZHOU YOUSEEN NEW PHARMACY DEVELOPMENT CO., LTD., priority 2012, published 2015).

How the values were obtained:
Format in all cases: in vivo, Kunming mice
[1] = tested on: mice in the hyperthyroidism model group; assay: Measurement of the level of thyroid hormone of serum (radioimmunoassay); conditions: for FT3 / FT4 / T3 / T4: serum, 20 days
Experimental: (§1) The successfully modeled mice are randomized into 5 groups (10 mice per group), that is, the hyperthyroidism model group, the catalpol low dosage group, the catalpol medium group, the catalpol high dosage group, and the methimazole group, plus the blank group (10 mice).
(§2) The catalpol low dosage group is administered 30mg/kg catalpol, the catalpol medium dosage group 60 mg/kg, the catalpol high group 90 mg/kg and the methimazole group 7.5 mg/kg methimazole, all by gastric infusion, while the blank group and the hyperthyroidism group are administered equal amount of distilled water, once per day, for 20 consecutive days. With the exception of the blank group, each mouse in each group continues to be administered 350 ug/kg levothyroxine sodium by means of subcutaneous injection each day.
A mouse is suspended of food without suspension of water for 12 hours subsequent to the last medication, and blood is taken from its eye ball, put in centrifugation for 15 minutes at 3500 r/min, serum is pumped out for measurement of T3, T4, FT3, and FT4 by means of radioimmunoassay. For detailed operations, see the instruction manual.

[2] = tested on: mice in the hyperthyroidism model group; assay: Observation of appearance and behavior of the mice; conditions: in words, as compared with the model group; daily observation
Experimental: (§3) The successfully modeled mice are randomized into 5 groups (10 mice per group), that is, the hyperthyroidism model group, the catalpol low dosage group, the catalpol medium group, the catalpol high dosage group, and the methimazole group, plus the blank group (10 mice). The catalpol low dosage group is administered 30mg/kg catalpol, the catalpol medium dosage group 60 mg/kg, the catalpol high group 90 mg/kg and the methimazole group 7.5 mg/kg methimazole, all by gastric infusion, while the blank group and the hyperthyroidism group are administered equal amount of distilled water, once per day, for 20 consecutive days. With the exception of the blank group, each mouse in each group continues to be administered 350 ug/kg levothyroxine sodium by means of subcutaneous injection each day. Animals were observed and recorded daily for their general status, including mental status, color and hair change, appearance and behavior. In addition, every two days, record is taken of their food intake.

[3] = tested on: mice in the hyperthyroidism model group; assay: Measurement of heart indexes of the mice; parameters: HWI / LVWI: unit not given here; conditions: for HWI: heart weight index = HW/BW; for HWI / LVWI: 20 days; for LVWI: left ventricular weight index = LVW/BW
Experimental: as §1, §2
A mouse is sacrificed its heart instantly taken out for measurement of its heart weight (HW) and (left ventricular weight (LVW). Heart weight index (HWI=HW/BW) and left ventricular weight index (LVWI=LVW/BW) is calculated at conclusion the experiment.

[4] = tested on: mice in the hyperthyroidism model group; assay: Measurement of the oxygen consumption of the mice; conditions: for Decrease in oxygen content: measured two days prior to the last medication, 21% minus residual oxygen
Experimental: as §1, §2
Oxygen consumption is measured two days prior to the last medication. The specific method is: take a model CY-3 digital oxygen meter and install therein an oxygen electrode. Connect, perform zero adjustment, and repeat until the instrument is stable for use. Take a 500 ml bottle, fix its outward connecting pipe with a rubber cover, seal with Vaseline. The rubber cover is connected via a tee, and a shift in the tee is selectable for connection or disconnection with outer space. A mouse is placed inside the bottle, and the mouth of the bottle is instantly covered with a wood plug to shut off air from the inner flask. The filtering flask is horizontally placed on the experiment table, and timing of 20 minutes After 20 minute, 10 ml air from the bottle was taken out by a injector and rapidly injected into a connector of the CY-3 type digital oxygen analyzer with the oxygen analyzer indicating oxygen content of the pumped in air. The data, when stable, is recorded as the residual oxygen value, then the oxygen consumption (20 min, 10 ml)=21%—residual oxygen value (%). (21% oxygen in air).

[5] = tested on: mice in the hyperthyroidism model group; assay: Measurement of heart rate of the mice (electrocardiogram)
Experimental: as §3, with “All the mice are suspended of food without suspension of water for 12 hours one day prior to the last medication” for “Animals were observed”, “heart rate is measured 3 hours later. Heart rate (HR) is calculated via the electrocardiogram, statistics is then conducted,” for “recorded daily for their general status, including mental status, color”, “differences are compared.” for “hair change, appearance and behavior. In addition, every two days, record is taken of their food intake.”

[6] = tested on: mice in the hyperthyroidism model group; assay: Measurement of mice weight change; conditions: for BW2 − BW1: body weight difference; for BW2 − BW1 / BW2: 20 days; for BW2: post-treatment body weight, levothyroxine sodium 350 ug/kg s.c. daily; for BW1: pre-treatment body weight
Experimental: as §1, §2
A mouse is suspended of food without suspension of water for 12 hours starting at 8 o'clock one day prior to the first medication, and all the mice are taken of their body weight (BW) the next day, that is, the pre-treatment body weight (BW1); the mouse is suspended of food without suspension of water for 12 hours starting at 8 o'clock of the day of the last medication, its body weight (BW) is taken the next day, that is, the post-treatment body weight (BW2); the difference of the pre-treatment body weight and the post-treatment body weight is calculated to compare the change of the body weight of the mice among each group.

[7] = catalpol 30 mg/kg gastric infusion once per day
[8] = catalpol 60 mg/kg gastric infusion once per day
[9] = catalpol 90 mg/kg gastric infusion once per day

OC[C@H]1O[C@@H](O[C@@H]2OC=C[C@H]3[C@H](O)[C@@H]4O[C@]4(CO)[C@@H]23)[C@H](O)[C@@H](O)[C@@H]1O [Catalpol]
T3 level in the serum ([1]; in words, compared with the model group, catalpol 30, 60, 90 mg/kg groups, methimazole 7.5 mg/kg, P<0.05): decreased T3 level in the serum to some extent | FT3 level in the serum ([1]; in words, compared with the model group, catalpol low P<0.01, medium, high and methimazole P<0.05): decreased FT3 level in the serum to some extent | FT4 level in the serum ([1]; in words, compared with the model group, only catalpol low dosage significant (P<0.05)): decreased FT4 level in the serum to some extent | T4 level in the serum ([1]; in words, compared with the model group, only methimazole difference significant (P<0.05)): decreased T4 level in the serum to some extent | FT3 [1, 7]: 7.49 ng/mL | FT4 [1, 7]: 22.87 ng/mL | T3 [1, 7]: 3.84 ng/mL | T4 [1, 7]: 181.02 ng/mL | FT3 [1, 8]: 8.22 ng/mL | FT4 [1, 8]: 23.77 ng/mL | T3 [1, 8]: 3.52 ng/mL | T4 [1, 8]: 179.90 ng/mL | FT3 [1, 9]: 7.56 ng/mL | FT4 [1, 9]: 24.02 ng/mL | T3 [1, 9]: 3.50 ng/mL | T4 [1, 9]: 178.50 ng/mL | appearance and behavior of the mice [2]: quieter and have reduced symptoms of dysphoria, excitability, and drier and darker hair | HWI [3, 7]: 5.912 | HWI [3, 8]: 5.650 | HWI [3, 9]: 5.58 | heart weight index ([3]; in words, compared with the model group, catalpol medium and high dosage and methimazole significant): decreased heart weight index to some extent | left ventricular index ([3]; in words, compared with the model group, catalpol medium and high dosage significant (P<0.01)): decreased left ventricular index to some extent | LVWI [3, 7]: 1.786 | LVWI [3, 8]: 1.625 | LVWI [3, 9]: 1.582 | Decrease in oxygen content ([4]; catalpol 30.0 mg/kg gastric infusion once per day): 8.88 %, 20 min | Decrease in oxygen content ([4]; catalpol 60.0 mg/kg gastric infusion once per day): 9.03 %, 20 min | Decrease in oxygen content [4, 9]: 8.81 %, 20 min | oxygen consumption ([4]; in words, compared with the model group, catalpol low (30 mg/kg) and high (90 mg/kg) dosage groups, methimazole 7.5 mg/kg): significantly decreased oxygen consumption | Heart rate ([5]; catalpol 30 mg/kg gastric infusion once per day, 20 days, levothyroxine sodium 350 ug/kg s.c. daily): 507.56 times/min | Heart rate ([5]; catalpol 60 mg/kg gastric infusion once per day, 20 days, levothyroxine sodium 350 ug/kg s.c. daily): 538.75 times/min | Heart rate ([5]; catalpol 90 mg/kg gastric infusion once per day, 20 days, levothyroxine sodium 350 ug/kg s.c. daily): 529.63 times/min | Heart rate ([5]; in words, compared with the model group, catalpol 30, 60, 90 mg/kg groups, methimazole 7.5 mg/kg): decreased heart rate to some extent | BW2 − BW1 [6, 7]: 9.00 g | BW2 − BW1 [6, 8]: 10.10 g | BW2 − BW1 [6, 9]: 10.15 g | body weight increase ([6]; in words, compared with the model group, catalpol groups, methimazole 7.5 mg/kg): more body weight increase to some extent | BW2 [6, 7]: 36.40 g | BW2 [6, 8]: 37.80 g | BW2 [6, 9]: 37.75 g | BW1 ([6]; catalpol 30 mg/kg group): 27.40 g | BW1 ([6]; catalpol 60 mg/kg group): 27.70 g | BW1 ([6]; catalpol 90 mg/kg group): 27.60 g
